Reference: paper PMC10747112, “Triphenylphosphine Derivatives of Allylbenzenes Express Antitumor and Adjuvant Activity When Solubilized with Cyclodextrin-Based Formulations” (Pharmaceuticals, 2023)

Tests used:
[1] = test system: whole blood; experiment: Thrombogenicity (whole blood thrombosis); conditions: 0.1 mg/mL
Source text: (§1) Hemolytic activity and thrombogenicity are the primary parameters for evaluating the safety of medical formulations. The phenotypic sea urchin embryo assay developed by colleagues is a visual way to study the toxicity of formulations in vivo. The sea urchin and human genomes contain more than 7000 common genes, including orthologs associated with a number of human diseases. Therefore, sea urchins can be considered as a reliable and versatile model organism for studying the safety of new and existing cytotoxic formulations in vivo. Table 5 presents data on the % of erythrocyte hemolysis, the degree of whole blood thrombosis of apiol-PPh3 and analogues, and data of phenotypic sea urchin embryo assay. Thus, the non-toxicity of PPh3 derivatives of allylbenzenes for normal non-cancer cells, as well as the selectivity of action against cancer cells, is shown. The selectivity of cytotoxic action against cancer cells in comparison with normal cells can be explained by the fact that the PPh3- cation provides selective accumulation and reduction in the mitochondrial membrane potential of the transformed cancer cells. Cyclodextrin (M-β-CD) and heparin are non-toxic (and approved by the FDA for intravenous application).
(§2) The hemolytic activity and thrombogenicity of apiol-PPh3 and analogues were studied using an earlier published technique.

[2] = Solubility by UV spectroscopy (PBS, with and without M-β-CD); format: physicochemical; conditions: for solubility: aqueous buffer, thermodynamic from solid
Procedure: On the contrary, their complexes with M-β-CD are soluble, and a clear peak in the UV spectrum is pronounced (225 nm). Based on UV spectra data in the presence of M-β-CD, the increase in solubility of apiol-PPh3 and analogues by a second order of magnitude is observed (Table 2).
The solubility of apiol and apiol-PPh3 (or analogues) in aqueous solution was determined by UV spectroscopy. UV spectra were recorded on the UltraSpec 2100 pro device (AmerSham Biosciences, Cambridge, UK) three times. The substances were dissolved in acetonitrile followed by recording the UV spectra at various cytostatics’ concentrations, and then we plotted calibration dependencies. Next, saturated solutions of substances in water were prepared, and the spectra of the aqueous solutions were recorded. Considering the extinction coefficients in water and acetonitrile to be approximately equal, the solubility was determined.

[3] = test system: erythrocytes; experiment: Hemolytic activity; format: cell-based; conditions: 0.1 mg/mL
Source text: as §1, §2

[4] = in vitro; format: cell-based; conditions: human
Procedure: HEK293T are model normal (non-cancer) cells that are widely used to compare the selectivity of cytostatic formulations on cancer cells. According to the MTT test, the concentration of cytostatics of 100 µM causes the death of up to 85% of cancer cells A549 (Figure 4a), while for non-cancer cells (HEK293T), the dying rate is only 15–20%.
(§3) Adenocarcinomic human alveolar basal epithelial cells A549 cell lines (Manassas, VA, USA) were cultured in RPMI-1640 medium, linear cells of the embryonic kidney human epithelium (HEK293T) were grown in DMEM medium as described earlier. Cell lines were obtained from Lomonosov Moscow State University Depository of Live Systems Collection and Laboratory of Medical Biotechnology, Institute of Biomedical Chemistry (Moscow, Russia).
(§4) The cytotoxic activity of paclitaxel, Apiol-PPh3 and analogues was determined using an MTT test. Paclitaxel-adjuvant synergism coefficients (SC) were calculated as CV (paclitaxel) × CV (alone adjuvant)/CV (combo paclitaxel + adjuvant), where CV represents the cell viability. The synergy coefficient can be interpreted as strong synergy (SC > 2), synergy (2 > SC > 1.2), indifference/additivity (1.2 > SC > 0.8), antagonism (0.8 > SC > 0.5), and inhibition (SC < 0.5), as described earlier.

[5] = test system: A549 cells; experiment: MTT assay, cytotoxic activity against A549; format: cell-based; conditions: Homo sapiens, A549; X in M-β-CD 1:5 mol/mol; MTT; read-out: −lg (IC50) of X in M-β-CD against A549 (converted)
Procedure: Concentrations of the active substance varied from 10^−2 to 10^−4 M. For MTT assay and biological experiments, substances in the concentration range from 10^−3 to 10^−9 M were studied by the dilution of initial ones in a cell growth medium or buffer.
as §3, §4

[6] = test system: HEK293T cells; experiment: FTIR spectroscopy of HEK293T cells during incubation with drug (penetration/adsorption); format: cell-based, human; conditions: 60 min incubation (apiol-PPh3 in M-β-CD) or pre-incubation (doxorubicin controls); 37 °C
Source text: The main cell structural units that contribute to the absorption of IR diapason can be assigned as follows (Figure 5): lipids of the cell membrane (2800–3000 cm^−1), proteins, especially transmembrane (1500–1700 cm^−1), phosphate groups of DNA (1240 cm^−1) and carbohydrates, including lipopolysaccharides (900–1100 cm^−1). Previously, we developed a technique for tracking the penetration and adsorption of the drug into cells using FTIR spectroscopy: dramatic changes in the intensity of the peaks of amide 1 and amide 2 indicate effective penetration of the drug into cells and vice versa.
Here, we present the real-time data of FTIR spectroscopy during the incubation of a suspension of HEK293T cells with apiol-PPh3 in M-β-CD (Figure 5). […] There is only a shift of the peak of amide 1 to the low-frequency region (inserts in Figure 5, the normalized intensity is shown) and amide 2 to the high-frequency region with the simultaneous appearance of the shoulder. This indicates the only adsorption of drug molecules on the cell surface, which is also confirmed by a weak increase in the intensity of the peaks at 2850–3000 cm^−1 corresponding to the valence vibrations of the CH2 groups (lipid bilayer). Thus, PPh3 derivatives show only marginal activity against normal cells.

| Thrombosis Index [1] | Solubility in the Presence of 0.05 M M-β-CD [2] | solubility [2] | Compound | Hemolysis Index [3] | viability at 10 µM [4] | viability at 100 µM [4] | viability at 300 µM [4] | IC50 [5] | changes in FTIR amide I and II peak intensity of HEK293T cells (drug penetration) [6] |
| --- | --- | --- | --- | --- | --- | --- | --- | --- | --- |
| 0.7 ± 0.2% | 17000 ± 5000 µM | 70 ± 10 µM | COc1cc(CCC[P+](c2ccccc2)(c2ccccc2)c2ccccc2)c(OC)c(OC)c1OC [Allyltetramethoxybenzene-PPh3] | 0.7 ± 0.1% | 98 ± 1% | 88 ± 3% | 83 ± 4% | 15.8 µM |  |
| 1.0 ± 0.1% | 8000 ± 1000 µM | 90 ± 10 µM | COc1c(CCC[P+](c2ccccc2)(c2ccccc2)c2ccccc2)cc2c(c1OC)OCO2 [Dillapiol-PPh3] | 0.9 ± 0.2% | 95 ± 3% | 84 ± 5% | 70 ± 5% | 2.51 µM |  |
| 1.5 ± 0.2% | 12000 ± 3000 µM | 40 ± 5 µM | COc1cc(CCC[P+](c2ccccc2)(c2ccccc2)c2ccccc2)cc2c1OCO2 [Myristicin-PPh3] | 0.5 ± 0.1% | 97 ± 3% | 91 ± 2% | 75 ± 3% | 5.01 µM |  |

| Compound | Thrombosis Index [1] | Solubility in the Presence of 0.05 M M-β-CD [2] | solubility [2] | Hemolysis Index [3] | viability at 10 µM [4] | viability at 100 µM [4] | viability at 300 µM [4] | IC50 [5] | changes in FTIR amide I and II peak intensity of HEK293T cells (drug penetration) [6] |
| --- | --- | --- | --- | --- | --- | --- | --- | --- | --- |
| COc1cc(CCC[P+](c2ccccc2)(c2ccccc2)c2ccccc2)c(OC)c2c1OCO2 [Apiol-PPh3] | 1.1 ± 0.2% | 15000 ± 2000 µM | 80 ± 10 µM | 0.8 ± 0.2% | 93 ± 2% | 82 ± 3% | 71 ± 2% | 1.58 µM | practically no changes in the intensity of the peaks of amide I and II |
